# Laboratory results: US20150289514A1 (priority 2012, published 2015)
# Experiments:
# Assay type in all cases: in vivo
# [1] = test system: Phytophthora infestans; conditions: tomatoes, preventive spray, 1 ppm a.i., evaluated 3 days after inoculation
# [2] = test system: Alternaria solani; assay: Alternaria test (tomatoes)/preventive; conditions: preventive spray, evaluated 3 days after inoculation
# [3] = test system: Venturia inaequalis; assay: Venturia test (apples)/preventive; conditions: preventive spray, evaluated 10 days after inoculation
smiles,measurement,setting,value
"CSC1=N[C@@](C)(c2ccccc2)C(=O)N1Nc1ccccc1 [F114, fenamidone]",Efficacy in % found,[1],37%
"CON=C(C(=O)OC)c1ccccc1CON=C(C)c1cccc(C(F)(F)F)c1 [F126, trifloxystrobin]",Efficacy in % found,[2]; 1 ppm a.i.,38%
same,Efficacy in % found,[3]; 0.25 ppm a.i.,60%
"CO/C=C(/C(=O)OC)c1ccccc1Oc1cc(Oc2ccccc2C#N)ncn1 [F107, azoxystrobin]",Efficacy in % found,[2]; 1 ppm a.i.,39%
same,Efficacy in % found,[1],61%
"COC(=O)N(OC)c1ccccc1COc1ccn(-c2ccc(Cl)cc2)n1 [F121, pyraclostrobin]",Efficacy in % found,[2]; 0.5 ppm a.i.,30%
same,Efficacy in % found,[3]; 1 ppm a.i.,65%
